Assay results reported in US20130202629A1, “USES OF PHOSPHOLIPID CONJUGATES OF SYNTHETIC TLR7 AGONISTS” (The Regents of the University of California, priority 2010, published 2013).
Several values for one entry are separate records, joined by “and”; a condition that tells them apart may be missing. Equal entries are not always repeated.

What was measured:
TLR7 [1] = molecular target: T1, TLR7 (Mus musculus, UniProt P58681); experiment: In vitro cytokine induction (TNF-alpha, IL-6, IL-12; ELISA) in murine macrophages: RAW264.7 cells and BMDM; type: cell-based; details: normalized to the molar level of the unconjugated agonist (SM)
T1 construct: BMDM were prepared from C57BL/6 and TLR7 deficient mice; endogenous in cells; host or cells: RAW264.7 (ATCC); bone marrow derived macrophages from C57BL/6 mice
T1 sequence (P58681 27-1050): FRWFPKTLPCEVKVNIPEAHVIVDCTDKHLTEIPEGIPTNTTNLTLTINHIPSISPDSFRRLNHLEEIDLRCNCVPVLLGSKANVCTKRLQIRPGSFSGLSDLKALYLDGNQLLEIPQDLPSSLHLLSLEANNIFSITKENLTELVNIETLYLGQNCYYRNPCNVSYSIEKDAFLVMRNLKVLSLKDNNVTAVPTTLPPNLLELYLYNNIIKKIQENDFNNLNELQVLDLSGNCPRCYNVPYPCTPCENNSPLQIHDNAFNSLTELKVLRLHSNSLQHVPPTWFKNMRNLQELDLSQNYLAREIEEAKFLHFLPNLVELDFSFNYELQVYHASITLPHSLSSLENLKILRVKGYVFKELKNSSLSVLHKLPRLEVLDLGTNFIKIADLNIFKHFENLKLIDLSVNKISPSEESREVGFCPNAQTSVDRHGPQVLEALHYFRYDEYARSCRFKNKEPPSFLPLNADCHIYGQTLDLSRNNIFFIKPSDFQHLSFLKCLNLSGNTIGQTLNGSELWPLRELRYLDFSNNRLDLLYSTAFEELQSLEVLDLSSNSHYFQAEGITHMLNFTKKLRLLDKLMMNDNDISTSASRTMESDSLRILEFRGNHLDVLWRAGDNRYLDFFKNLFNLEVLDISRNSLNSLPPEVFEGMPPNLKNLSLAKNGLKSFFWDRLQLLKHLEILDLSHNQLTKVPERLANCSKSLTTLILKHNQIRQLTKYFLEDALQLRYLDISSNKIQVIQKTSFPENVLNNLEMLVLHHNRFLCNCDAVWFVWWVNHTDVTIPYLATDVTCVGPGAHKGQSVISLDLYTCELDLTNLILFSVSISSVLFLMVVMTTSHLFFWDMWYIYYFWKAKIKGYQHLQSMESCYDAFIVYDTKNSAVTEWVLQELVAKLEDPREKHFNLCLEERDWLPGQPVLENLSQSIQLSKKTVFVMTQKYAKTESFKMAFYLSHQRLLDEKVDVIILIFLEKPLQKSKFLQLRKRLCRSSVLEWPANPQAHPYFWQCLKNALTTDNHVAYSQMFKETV
Protocol: In vitro measurements of cytokine induction were performed using the mouse leukemic monocyte macrophage cell line, RAW264.7. […] BMDM were prepared from C57BL/6 and TLR7 deficient mice as described in Wu, C. C et al., “Immunotherapeutic activity of a conjugate of a Toll-like receptor 7 ligand”, Proc. Natl. Acad. Sci. USA, 104:3990 (2007).
In general, RAW264.7 cells or BMDM were incubated with various concentrations of conjugates for 18 hours at 37° C., 5% CO2 and culture supernatants were collected. The levels of cytokines (IL-6, IL-12 or TNF-α in the supernatants were determined by ELISA (BD Biosciences Pharmingen, La Jolla, Calif.) (Cho, H. J et al., “Immunostimulatory DNA-based vaccines induce cytotoxic lymphocyte activity by a T-helper cell-independent mechanism” [see comments], Nat. Biotechnol., 18:509 (2000)), and the results presented in FIGS. 2A-D. Data are mean±SEM of triplicates and are representative of three independent experiments. Minimum detection levels of these cytokines were 15 pg/mL.
TNFα levels were measured (see FIG. 2A) by incubating approximately 1×10^6/mL RAW 264.7 cells with the various conjugates or controls, as described above. IL-6 and IL-12 levels were measured (see FIGS. 2B-D) by incubating 0.5×10^6/mL BMDM with the various conjugates or controls, as described above. […]

TLR7 [2] = molecular target: T2, TLR7 (Homo sapiens, UniProt Q9NYK1); experiment: Cytokine induction (IL-6, IFNalpha1; Luminex) in human PBMC; type: cell-based; details: 18 hours, IL-6 (FIG. 3A)
T2 sequence (Q9NYK1 27-1049): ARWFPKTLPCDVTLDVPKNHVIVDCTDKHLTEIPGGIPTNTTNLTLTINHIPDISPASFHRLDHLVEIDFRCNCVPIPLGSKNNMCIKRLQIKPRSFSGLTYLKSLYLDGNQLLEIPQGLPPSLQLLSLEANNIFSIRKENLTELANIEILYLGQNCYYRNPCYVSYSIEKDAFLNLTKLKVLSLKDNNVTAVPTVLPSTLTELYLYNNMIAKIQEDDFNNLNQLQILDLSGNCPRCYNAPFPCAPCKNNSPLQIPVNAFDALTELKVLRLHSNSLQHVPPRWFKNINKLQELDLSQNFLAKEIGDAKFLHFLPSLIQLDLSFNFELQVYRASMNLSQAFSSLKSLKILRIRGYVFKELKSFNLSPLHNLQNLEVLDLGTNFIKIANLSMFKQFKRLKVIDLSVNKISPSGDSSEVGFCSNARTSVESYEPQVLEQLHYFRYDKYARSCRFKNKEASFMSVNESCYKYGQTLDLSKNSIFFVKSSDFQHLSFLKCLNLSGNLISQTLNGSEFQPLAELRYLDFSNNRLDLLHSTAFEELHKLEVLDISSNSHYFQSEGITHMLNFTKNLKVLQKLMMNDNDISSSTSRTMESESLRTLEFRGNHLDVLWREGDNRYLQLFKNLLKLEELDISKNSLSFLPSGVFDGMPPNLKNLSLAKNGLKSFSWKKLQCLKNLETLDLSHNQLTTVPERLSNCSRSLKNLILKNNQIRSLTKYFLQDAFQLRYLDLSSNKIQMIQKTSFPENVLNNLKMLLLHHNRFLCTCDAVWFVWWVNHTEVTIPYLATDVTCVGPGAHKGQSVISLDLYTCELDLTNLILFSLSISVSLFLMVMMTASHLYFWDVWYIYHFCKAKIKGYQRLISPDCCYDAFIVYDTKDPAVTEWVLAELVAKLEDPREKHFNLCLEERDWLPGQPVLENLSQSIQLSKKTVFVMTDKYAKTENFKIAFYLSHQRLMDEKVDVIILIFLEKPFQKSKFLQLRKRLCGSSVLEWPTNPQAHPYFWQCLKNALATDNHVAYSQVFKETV

C57BL/6 mice = experiment: In vivo evaluation of adverse effects after OVA plus TLR7 conjugate immunization; details: OVA mixed with conjugate, 10 nmoles per mouse

## CCCCCCCC/C=C\CCCCCCCC(=O)OCC(COP(=O)(O)OCCNC(=O)c1ccc(Cn2c(=O)[nH]c3c(N)nc(OCCOC)nc32)cc1)OC(=O)CCCCCCC/C=C\CCCCCCCC (stereo not drawn) [Compound 6, 2-(4-((6-amino-2-(2-methoxyethoxy)-8-oxo-7H-purin-9(8H)-yl)methyl)benzamido)ethyl 2,3-bis(oleoyloxy)propyl phosphate]
TLR7 [1]
  potency as cytokine inducer relative to the unconjugated agonist: 10 fold
TLR7 [2]
  order of TLR7 conjugate potency: (4b)>(6)>(9)>/=SM>(8) and 4b>6>9>SM=8
C57BL/6 mice
  average body weights versus mice injected saline: No significant differences
